From patent US20040138200A1, “Pharmaceutical compositions for treatment of Parkinson's disease” (priority 2002, published 2004)
Counter-ions that a name gives are not always drawn.

Assay: rotating disk dissolution test
Type: physicochemical
Conditions: 300 rpm; for Rotating Disk Dissolution Rate (RDDR): crystalline salt, 20 mg pellet, about 500 ml dissolution medium at 25° C., slope normalized to initial exposed surface area
Source text: In a preferred aspect, the salts of the present invention are crystalline salts. A crystalline salt of the invention dissolves slower than the crystalline maleate salt of the same compound under standard conditions of temperature, pressure, and fluid flow. Preferably, the dissolution rate of a crystalline salt of the invention, when measured by a rotating disk dissolution test, is less than 50% of that of a crystalline maleate salt of the same compound. More preferably, the dissolution rate is less than 25% of that of a crystalline maleate salt of the same compound. More preferably, the dissolution rate is less than 10% of that of a crystalline maleate salt of the same compound. For example, under the standard conditions in a rotating disc dissolution test, the maleate salt crystals dissolved at a rotating disc dissolution rate (RDDR) of 0.44 mmole sec^−1 cm^−2, whereas the xinafoate salt crystals dissolved at a rate of 0.03 mmole sec^−1 cm^−2 (see FIG. 1). In preferred embodiments, the salt of the invention the salt has a dissolution rate into aqueous solution of about 0.40 mmole sec^−1 cm^−2 or less. In more preferred embodiments, the salt of the invention the salt has a dissolution rate into aqueous solution of about 0.20 mmole sec^−1 cm^−2 or less. In more preferred embodiments, the salt of the invention the salt has a dissolution rate into aqueous solution of about 0.05 mmole sec^−1 cm^−2 or less.
Dissolution rates of sumanirole from xinafoate and maleate crystalline salts were determined using a rotating disk apparatus. In this apparatus, a die containing a pellet comprising a substance of interest is attached to an arm connected to a small motor. The die is submerged in about 500 ml of a dissolution medium at 25° C., and rotated at 300 rpm. The concentration of a compound released into solution is measured in a series of time points using an in situ UV/vis absorbance dip probe linked to a digital computer. For testing the dissolution rates of sumanirole xinafoate and sumanirole maleate crystalline salts, 20 mg of the xinafoate crystalline salt and 20 mg of the maleate crystalline salt were each pressed into pellets of uniform shape at 1000 pounds (3700 psi) for 1 minute. Each pellet was then subjected to dissolution in a rotating disc dissolution apparatus. Measurements of the amount of sumanirole dissolved into the medium, recorded as milligrams of free base equivalent of sumanirole, were plotted against time (FIG. 1). The slope of each curve, normalized to the initial exposed surface area of each disk, was used to calculate a Rotating Disk Dissolution Rate (RDDR) for each salt.

SMILES: CN[C@@H]1Cc2cccc3[nH]c(=O)n(c23)C1 [sumanirole maleate, (R)-5,6-dihydro-5-(methylamino)-4H-imidazo[4,5,1-ij]quinolin-2(1H)-one, reference compound]
- Rotating Disk Dissolution Rate (RDDR): 0.44 mmole sec^−1 cm^−2
- Rotating Disk Dissolution Rate (RDDR) (listed as maleate salt): 0.44 mmole sec^−1 cm^−2

SMILES: CN[C@@H]1Cc2cccc3[nH]c(=O)n(c23)C1 [sumanirole xinafoate, (R)-5,6-dihydro-5-(methylamino)-4H-imidazo[4,5,1-ij]quinolin-2(1H)-one]
- Rotating Disk Dissolution Rate (RDDR): 0.030 mmole sec^−1 cm^−2
- Rotating Disk Dissolution Rate (RDDR) (listed as xinafoate salt): 0.03 mmole sec^−1 cm^−2
- dissolution rate relative to the rate of the sumanirole maleate crystalline salt (rotating disk dissolution, 25° C.): less than 10%
